Source: ChEMBL document CHEMBL4811316, “Larvicidal activity and in silico studies of cinnamic acid derivatives against Aedes aegypti (Diptera: Culicidae)” (Bioorg Med Chem, 2021)
Values after ≈ are worked out from the molar mass of the structure shown.

Columns and labels:
[1] = Larvicidal activity against Aedes aegypti 4th instar larvae measured after 48 hrs; assay type: ADME
[2] = Larvicidal activity against Aedes aegypti assessed as mortality at 45 ug/ml measured after 24 hrs relative to control; assay type: ADME; conditions: at 45 µg/mL
[3] = Larvicidal activity against Aedes aegypti assessed as mortality at 100 ug/ml measured after 24 hrs relative to control; assay type: ADME; conditions: at 100 µg/mL
[4] = Retention time of the compound; assay type: physicochemical
[5] = Drug recovery in Aedes aegypti supernatant measured after 24 hrs by HPLC analysis; assay type: ADME
[6] = Drug recovery in Aedes aegypti larval extract by HPLC analysis; assay type: ADME; conditions: 24 h
[7] = Toxicity in Aedes aegypti assessed as appearance of dark spots in intestine region at 50 ug/ml; assay type: tissue-based; conditions: dose 50 µg/ml
[8] = Toxicity in Aedes aegypti assessed as translucent in anal papillae at 50 ug/ml; conditions: dose 50 µg/ml
[9] = Toxicity in Aedes aegypti assessed as abdomen curvature at 50 ug/ml; conditions: dose 50 µg/ml
[10] = Toxicity in Aedes aegypti assessed as rigid and elongated exoskeleton at 50 ug/ml; conditions: dose 50 µg/ml
[11] = Toxicity in Aedes aegypti assessed as appearance of dark spots in thorax region at 50 ug/ml; conditions: dose 50 µg/ml
[12] = Toxicity in Aedes aegypti assessed as reduction in body mass at 50 ug/ml; conditions: dose 50 µg/ml
[13] = Toxicity in Aedes aegypti assessed as appearance of dark spots in siphon region at 50 ug/ml; conditions: dose 50 µg/ml
[14] = Toxicity in Aedes aegypti assessed as modifications in anal papillae at 50 ug/ml; conditions: dose 50 µg/ml

For `O=C(O)/C=C/c1ccc(Br)cc1`, the LC10 [1] was 31.7 µg/mL (≈ 140 µM), the LC50 [1] was 54.4 µg/mL (≈ 240 µM) and the LC90 [1] was 93.2 µg/mL (≈ 410 µM). The mortality [2] was 36.7% and the mortality [3] was 93.3%.
Work on `CCOC(=O)/C=C/c1ccc(O)cc1` [ETHYL P-COUMARATE] yielded a mortality [2] of 0%.
For `CCOC(=O)/C=C/c1ccccc1` [ETHYL CINNAMATE], the LC10 [1] was 30.4 µg/mL (≈ 173 µM), the LC50 [1] was 35.6 µg/mL (≈ 202 µM) and the LC90 [1] was 41.7 µg/mL (≈ 237 µM). For the same compound, the mortality [2] was 95%.
`CCOC(=O)/C=C/c1ccc(OC)cc1` [4-METHOXY ETHYL CINNAMATE] showed an LC10 [1] of 18.2 µg/mL (≈ 88.2 µM), an LC50 [1] of 26.9 µg/mL (≈ 130 µM) and an LC90 [1] of 39.7 µg/mL (≈ 192 µM). The mortality [2] was 80%.
Work on `CCOC(=O)/C=C/c1ccc([N+](=O)[O-])cc1` yielded an LC10 [1] of 21.3 µg/mL (≈ 96.3 µM), an LC50 [1] of 35.7 µg/mL (≈ 161 µM) and an LC90 [1] of 60 µg/mL (≈ 271 µM). For the same compound, the mortality [2] was 98.3%.
Work on `O=C(O)/C=C/c1ccc(OC(F)(F)F)cc1` yielded a mortality [3] of 40%.
For `O=C(O)/C=C/c1ccc(C(F)(F)F)cc1`, the LC10 [1] was 87.7 µg/mL (≈ 406 µM), the LC50 [1] was 97.6 µg/mL (≈ 452 µM) and the LC90 [1] was 108.6 µg/mL (≈ 502 µM). For the same compound, the mortality [2] was 0% and the mortality [3] was 56.7%.
`CCOC(=O)/C=C/c1ccc(Cl)cc1Cl` [ETHYL 3-(2,4-DICHLOROPHENYL)ACRYLATE] gave an LC10 [1] of 10.2 µg/mL (≈ 41.6 µM), an LC50 [1] of 23.6 µg/mL (≈ 96.3 µM) and an LC90 [1] of 54.8 µg/mL (≈ 224 µM). The mortality [2] was 86.7%.
Work on `O=C(O)/C=C/c1ccccc1` [CINNAMIC ACID] yielded a mortality [2] of 0% and a mortality [3] of 28.3%.
Work on `CCOC(=O)/C=C/c1ccc(N(C)C)cc1` yielded a mortality [3] of 6.7%.
`COc1ccc(/C=C/C(=O)O)cc1` [4-METHOXYCINNAMIC ACID] gave a mortality [2] of 0%.
`O=C(O)/C=C/c1ccc(Cl)cc1` showed a Retention_time [4] of 3.32 min, an LC10 [1] of 16.2 µg/mL (≈ 88.7 µM) and an LC50 [1] of 26 µg/mL (≈ 142 µM). For the same compound, the LC90 [1] was 41.8 µg/mL (≈ 229 µM), the Drug recovery [5] was 3.8191 µg/mL and the mortality [2] was 95%. It also gave a Drug recovery [6] of 2.7143 µg/mL and a mortality [3] of 100%.
In the case of `CCOC(=O)/C=C/c1ccc(C(C)(C)C)cc1`, the mortality [2] was 40%.
Work on `CCOC(=O)/C=C/C=C/c1ccccc1` yielded an LC10 [1] of 10 µg/mL (≈ 49.4 µM), an LC50 [1] of 19.7 µg/mL (≈ 97.4 µM) and an LC90 [1] of 38.8 µg/mL (≈ 192 µM). For the same compound, the mortality [2] was 93.3%.
With `O=C(O)/C=C/c1ccc(F)cc1` the mortality [3] was 0%.
With `CCOC(=O)/C=C/c1ccc(Br)cc1` the LC10 [1] was 18.9 µg/mL (≈ 74.1 µM), the LC50 [1] was 25.1 µg/mL (≈ 98.4 µM) and the LC90 [1] was 33.3 µg/mL (≈ 131 µM). The mortality [2] was 100%.
With `CCOC(=O)/C=C/c1ccc(Cl)cc1` [ETHYL 3-(4-CHLOROPHENYL)ACRYLATE] the Activity [7] was “Toxic”, the Activity [8] was “Toxic” and the Retention_time [4] was 3.61 min. For the same compound, the LC10 [1] was 3.5 µg/mL (≈ 16.6 µM), the LC50 [1] was 8.3 µg/mL (≈ 39.4 µM) and the LC90 [1] was 19.7 µg/mL (≈ 93.5 µM). For the same compound, the Activity [9] was “Toxic”, the Activity [10] was “Toxic” and the Drug recovery [5] was 10.8746 µg/mL. For the same compound, the Activity [11] was “Toxic”, the mortality [2] was 100% and the Activity [12] was “Toxic”. The Drug recovery [6] was 8.2531 µg/mL, the Activity [13] was “Toxic” and the Activity [14] was “Toxic”.
In the case of `CCOC(=O)/C=C/c1ccc(C(F)(F)F)cc1`, the LC10 [1] was 11.1 µg/mL (≈ 45.5 µM), the LC50 [1] was 21.6 µg/mL (≈ 88.4 µM) and the LC90 [1] was 42.2 µg/mL (≈ 173 µM). It also gave a mortality [2] of 98.3%.
Work on `O=C(O)/C=C/c1ccc([N+](=O)[O-])cc1` yielded an LC10 [1] of 29 µg/mL (≈ 150 µM), an LC50 [1] of 37.1 µg/mL (≈ 192 µM) and an LC90 [1] of 47.5 µg/mL (≈ 246 µM). It also gave a mortality [2] of 86.7% and a mortality [3] of 96.7%.
`CCOC(=O)/C=C/c1ccc(OC(F)(F)F)cc1` showed an LC10 [1] of 19.6 µg/mL (≈ 75.3 µM), an LC50 [1] of 31.3 µg/mL (≈ 120 µM) and an LC90 [1] of 50 µg/mL (≈ 192 µM). For the same compound, the mortality [2] was 93.3%.
`COP(=S)(OC)Oc1ccc(Sc2ccc(OP(=S)(OC)OC)cc2)cc1` [TEMEFOS] gave an LC10 [1] of 1.8 µg/mL (≈ 3.86 µM), an LC50 [1] of 4.4 µg/mL (≈ 9.43 µM) and an LC90 [1] of 10.4 µg/mL (≈ 22.3 µM).
In the case of `CCOC(=O)/C=C/c1ccc(C#N)cc1`, the mortality [2] was 8.3%.
Work on `CCOC(=O)/C=C/c1ccc(F)cc1` yielded an LC10 [1] of 24 µg/mL (≈ 124 µM), an LC50 [1] of 32.2 µg/mL (≈ 166 µM) and an LC90 [1] of 43.2 µg/mL (≈ 222 µM). The mortality [2] was 83.3%.
